Laboratory results published in article PMC10904834 (Nature Communications, 2024).

Assays:
BcATG4 [1] = biological target: T1, BcATG4 (Botrytis cinerea, UniProt A6SDQ3); test: isothermal titration calorimetry
T1 construct: gene atg4

BcATG4 [2] = biological target: T1, BcATG4
MoATG4 [3] = biological target: T2, MoATG4 (Pyricularia oryzae, UniProt Q523C3); conditions: 10 uM compound; RT, 10 min preincubation; thiol-reactive, proposed covalent
T2 construct: gene ATG4

MoATG4 [4] = biological target: T2, MoATG4; test: biochemical

T1 sequence (A6SDQ3 whole entry): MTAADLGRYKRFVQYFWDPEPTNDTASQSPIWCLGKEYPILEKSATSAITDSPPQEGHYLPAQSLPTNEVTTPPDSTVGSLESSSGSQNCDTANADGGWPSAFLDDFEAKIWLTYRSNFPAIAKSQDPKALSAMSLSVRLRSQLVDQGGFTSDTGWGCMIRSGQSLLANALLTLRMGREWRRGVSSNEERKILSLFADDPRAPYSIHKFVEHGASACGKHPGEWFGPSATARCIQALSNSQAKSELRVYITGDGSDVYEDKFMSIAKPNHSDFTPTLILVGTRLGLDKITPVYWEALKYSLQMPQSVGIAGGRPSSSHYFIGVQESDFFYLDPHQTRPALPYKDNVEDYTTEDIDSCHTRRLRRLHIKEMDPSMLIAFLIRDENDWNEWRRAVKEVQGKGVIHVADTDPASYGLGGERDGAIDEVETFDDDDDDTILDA
T2 sequence (Q523C3 whole entry, looked up): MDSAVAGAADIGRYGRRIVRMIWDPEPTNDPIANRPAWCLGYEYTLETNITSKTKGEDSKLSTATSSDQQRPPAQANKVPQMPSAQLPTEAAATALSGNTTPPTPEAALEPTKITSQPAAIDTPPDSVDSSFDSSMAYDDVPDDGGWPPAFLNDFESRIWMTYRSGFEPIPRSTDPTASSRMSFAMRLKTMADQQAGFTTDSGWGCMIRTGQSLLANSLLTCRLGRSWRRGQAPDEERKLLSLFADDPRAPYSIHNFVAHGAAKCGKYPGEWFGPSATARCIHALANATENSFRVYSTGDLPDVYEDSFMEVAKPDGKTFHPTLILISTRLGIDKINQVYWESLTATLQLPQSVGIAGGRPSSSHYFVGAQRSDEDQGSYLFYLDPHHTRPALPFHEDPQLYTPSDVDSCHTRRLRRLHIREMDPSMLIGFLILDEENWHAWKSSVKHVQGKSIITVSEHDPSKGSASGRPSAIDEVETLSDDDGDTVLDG

O=c1c2ccccc2[se]n1-c1ccccc1 [EB, ebselen]
Kd (BcATG4 [1]): 3.4 nM | IC50 (BcATG4 [2]): 620 ± 30 nM | in vitro cleavage of Citrine-MoATG8-ShR sensor, western blot (MoATG4 [3]): strong inhibition of the MoATG4-mediated cleavage of MoATG8 by EB and its analogs | Kd (MoATG4 [4]): 1 nM

O=C1c2ccccc2[Se](=O)N1c1ccccc1 (centres unmarked) [EO, ebselen oxide]
IC50 (BcATG4 [2]): 500 ± 30 nM | in vitro cleavage of Citrine-MoATG8-ShR sensor, western blot (MoATG4 [3]): strong inhibition of the MoATG4-mediated cleavage of MoATG8 by EB and its analogs

Cc1ccc(-n2sc3ccccc3c2=O)cc1 [PT, 2-(4-methylphenyl)−1,2-benzisothiazol-3(2H)-one]
IC50 (BcATG4 [2]): 1790 ± 240 nM | in vitro cleavage of Citrine-MoATG8-ShR sensor, western blot (MoATG4 [3]): strong inhibition of the MoATG4-mediated cleavage of MoATG8 by EB and its analogs
